Experimental findings from ChEMBL document CHEMBL1135380, “Synthesis and structure-activity relationship of 2-(aminoalkyl)-2,3,3a,8-tetrahydrodibenzo[c,f]isoxazolo[2,3-a]azepine derivatives: a novel series of 5-HT(2A/2C) receptor antagonists. Part 1” (Bioorg Med Chem Lett, 2002) are described below.

Chain of 5-hydroxytryptamine receptor 2A (P28223 whole entry): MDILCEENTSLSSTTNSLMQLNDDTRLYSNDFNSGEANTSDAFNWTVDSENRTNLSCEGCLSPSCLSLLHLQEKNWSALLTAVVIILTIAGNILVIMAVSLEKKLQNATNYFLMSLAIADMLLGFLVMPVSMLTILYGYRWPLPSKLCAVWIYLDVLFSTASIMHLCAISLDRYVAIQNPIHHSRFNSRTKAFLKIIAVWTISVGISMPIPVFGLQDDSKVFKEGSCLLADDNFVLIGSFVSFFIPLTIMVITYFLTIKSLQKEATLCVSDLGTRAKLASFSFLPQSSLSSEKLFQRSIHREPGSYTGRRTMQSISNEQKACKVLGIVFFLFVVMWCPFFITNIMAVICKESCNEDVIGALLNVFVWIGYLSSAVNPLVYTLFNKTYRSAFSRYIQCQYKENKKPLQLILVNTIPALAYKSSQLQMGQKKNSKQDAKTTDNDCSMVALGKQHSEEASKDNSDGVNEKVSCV
Chain of Histamine H1 receptor (P35367 whole entry): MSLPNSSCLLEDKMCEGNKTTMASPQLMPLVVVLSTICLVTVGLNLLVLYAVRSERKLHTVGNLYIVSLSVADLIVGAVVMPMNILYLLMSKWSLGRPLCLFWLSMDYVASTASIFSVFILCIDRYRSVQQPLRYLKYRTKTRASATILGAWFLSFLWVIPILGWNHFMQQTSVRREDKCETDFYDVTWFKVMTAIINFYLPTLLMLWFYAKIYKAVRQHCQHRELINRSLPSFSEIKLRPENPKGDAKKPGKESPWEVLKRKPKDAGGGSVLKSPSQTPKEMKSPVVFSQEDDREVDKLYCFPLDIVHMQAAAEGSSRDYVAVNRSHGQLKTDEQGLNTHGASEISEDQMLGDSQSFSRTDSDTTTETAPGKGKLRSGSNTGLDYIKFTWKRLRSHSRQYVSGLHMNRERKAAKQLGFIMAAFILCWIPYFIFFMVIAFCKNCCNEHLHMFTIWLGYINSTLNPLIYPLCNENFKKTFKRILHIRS

One experiment has as its target 5-hydroxytryptamine receptor 2A (Homo sapiens, UniProt P28223). The experiment can be described thus: biochemical. The format is cell-based, L929.
Details: not given
In general, IC50 refers to the concentration at which inhibition is half-maximal. A lower IC50 goes with higher potency. The compound `O=C1c2ccccc2C(=O)N1CC1CC2c3ccccc3Cc3ccccc3N2O1` (centres undefined) had an IC50 of more than 1 µM.

`CN1CCN(CC2CC3c4ccccc4Cc4ccccc4N3O2)CC1` (centres undefined) showed an IC50 of 0.282 µM.

The compound `CC(C)N(CC1CC2c3ccccc3Cc3ccccc3N2O1)C(C)C` (centres undefined) gave an IC50 of more than 1 µM.

For `NCC1CC2c3ccccc3Cc3ccccc3N2O1` (centres undefined), the 50% inhibitory concentration (IC50) was 0.0158 µM.

In the case of `CN(C)C(=O)C1CC2c3ccccc3Cc3ccccc3N2O1` (centres undefined), the IC50 was more than 1 µM.

As to `CN(CC1CC2c3ccccc3Cc3ccccc3N2O1)C(=O)C(F)(F)F` (centres undefined), the IC50 was more than 1 µM.

In turn, `CN(C)CC1CC2c3ccccc3Oc3ccc(Cl)cc3N2O1` (centres undefined) had a half-inhibitory concentration (IC50) of 0.00191 µM.

As to `CCN(CC)CC1CC2c3ccccc3Cc3ccccc3N2O1` (centres undefined), 0.0427 µM corresponded to half-maximal inhibition (IC50). This IC50 lies about 22-fold higher than the previous one.

In turn, `Clc1cccc(N2CCN(CC3CC4c5ccccc5Cc5ccccc5N4O3)CC2)c1` (centres undefined) showed an IC50 of more than 1 µM.

As for `c1ccc2c(c1)Cc1ccccc1N1OC(CN3CCCC3)CC21` (centres undefined), inhibition was half-maximal at 0.0251 µM (IC50).

A further experiment addresses Histamine H1 receptor (Homo sapiens, UniProt P35367). The experiment can be described thus: Binding affinity for human cloned Histamine H1 receptor expressed in CHO cells using [3H]pyrilamine as radioligand.
Details: not given
The format is cell-based.
The compound `O=C1c2ccccc2C(=O)N1CC1CC2c3ccccc3Cc3ccccc3N2O1` (centres undefined) showed an IC50 of more than 1 µM.

Regarding `CC(C)N(CC1CC2c3ccccc3Cc3ccccc3N2O1)C(C)C` (centres undefined), the 50% inhibitory concentration (IC50) is 0.151 µM.

In turn, `NCC1CC2c3ccccc3Cc3ccccc3N2O1` (centres undefined) had an IC50 of 0.2 µM.

`CN(C)C(=O)C1CC2c3ccccc3Cc3ccccc3N2O1` (centres undefined) showed a 50% inhibitory concentration (IC50) of more than 1 µM.

Consider `CN(CC1CC2c3ccccc3Cc3ccccc3N2O1)C(=O)C(F)(F)F` (centres undefined), for which the concentration for half-maximal inhibition (IC50) was more than 1 µM.

The compound `CN(C)CC1CC2c3ccccc3Oc3ccc(Cl)cc3N2O1` (centres undefined) had an IC50 of 0.102 µM.

Compound `CCN(CC)CC1CC2c3ccccc3Cc3ccccc3N2O1` (centres undefined) showed a 50% inhibitory concentration (IC50) of 0.0135 µM.

The compound `Clc1cccc(N2CCN(CC3CC4c5ccccc5Cc5ccccc5N4O3)CC2)c1` (centres undefined) had an IC50 of more than 1 µM.

With `c1ccc2c(c1)Cc1ccccc1N1OC(CN3CCCC3)CC21` (centres undefined), the half-inhibitory concentration (IC50) is 0.00302 µM.

For a further experiment, the system named is Rattus norvegicus. Put plainly: In vivo activity in mCPP challenge test were performed in male Wistar rats by subcutaneous administration. The format is functional. The note with it: Rattus norvegicus, sc; read-out: ED50.
One may read the ED50 as the dose that gives a 50% effect, or the effect in half of the subjects. In the case of `CN1CCN(CC2CC3c4ccccc4Cc4ccccc4N3O2)CC1` (centres undefined), the ED50 is more than 2.5 mg/kg.

With `CN(C)CC1CC2c3ccccc3Oc3ccc(Cl)cc3N2O1` (centres undefined), the median effective dose (ED50) was more than 2.5 mg/kg.

Regarding `c1ccc2c(c1)Cc1ccccc1N1OC(CN3CCCC3)CC21` (centres undefined), the ED50 is more than 2.5 mg/kg.

In another experiment the target is T1, 5-hydroxytryptamine receptor 2C (Rattus norvegicus) (UniProt P08909).
T1 sequence (whole entry): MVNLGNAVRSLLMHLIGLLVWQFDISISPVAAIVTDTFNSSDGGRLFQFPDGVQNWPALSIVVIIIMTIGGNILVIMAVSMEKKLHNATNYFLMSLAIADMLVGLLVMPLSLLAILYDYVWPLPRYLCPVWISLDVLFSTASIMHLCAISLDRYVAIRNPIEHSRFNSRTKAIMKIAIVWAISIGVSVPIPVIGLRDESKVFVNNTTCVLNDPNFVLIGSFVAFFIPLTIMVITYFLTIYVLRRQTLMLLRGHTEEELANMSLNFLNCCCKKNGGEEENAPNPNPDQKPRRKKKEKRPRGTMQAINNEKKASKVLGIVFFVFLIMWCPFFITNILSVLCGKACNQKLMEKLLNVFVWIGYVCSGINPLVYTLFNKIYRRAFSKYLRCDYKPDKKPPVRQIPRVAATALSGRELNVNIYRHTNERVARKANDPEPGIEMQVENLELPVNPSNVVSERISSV
Put plainly: In vivo activity in rat mCPP challenge test following p.o. administration. The format is functional, organism-based.
Details: not given
As for `O=C1c2ccccc2C(=O)N1CC1CC2c3ccccc3Cc3ccccc3N2O1` (centres undefined), the ED50 is more than 2.5 mg/kg.

The compound `CN1CCN(CC2CC3c4ccccc4Cc4ccccc4N3O2)CC1` (centres undefined) returned a median effective dose (ED50) of more than 2.5 mg/kg.

In turn, `CC(C)N(CC1CC2c3ccccc3Cc3ccccc3N2O1)C(C)C` (centres undefined) returned an ED50 of more than 2.5 mg/kg.

`CN(C)CC1(C)CC2c3ccccc3Cc3ccccc3N2O1` (stereo in doubt; cis) returned an ED50 of more than 2.5 mg/kg.

Compound `NCC1CC2c3ccccc3Cc3ccccc3N2O1` (centres undefined) registered an ED50 of more than 2.5 mg/kg.

The compound `CN(C)C(=O)C1CC2c3ccccc3Cc3ccccc3N2O1` (centres undefined) registered an ED50 of more than 2.5 mg/kg.

Regarding `CN(CC1CC2c3ccccc3Cc3ccccc3N2O1)C(=O)C(F)(F)F` (centres undefined), the 50% effective dose (ED50) was more than 2.5 mg/kg.

`CN(C)CC1CC2c3ccccc3Oc3ccc(Cl)cc3N2O1` (centres undefined) came in with a median effective dose (ED50) of more than 2.5 mg/kg.

In turn, `CCN(CC)CC1CC2c3ccccc3Cc3ccccc3N2O1` (centres undefined) yielded an ED50 of 2.5 mg/kg.

`Clc1cccc(N2CCN(CC3CC4c5ccccc5Cc5ccccc5N4O3)CC2)c1` (centres undefined) gave an ED50 of more than 2.5 mg/kg.

For the compound `CN(C)CC1(C)CC2c3ccccc3Cc3ccccc3N2O1` (stereo in doubt; trans), the ED50 was more than 2.5 mg/kg.

As for `c1ccc2c(c1)Cc1ccccc1N1OC(CN3CCCC3)CC21` (centres undefined), the ED50 was more than 2.5 mg/kg.

A further experiment concerns the target T2, 5-hydroxytryptamine receptor 2C (Homo sapiens, UniProt P28335).
T2 sequence (P28335 whole entry): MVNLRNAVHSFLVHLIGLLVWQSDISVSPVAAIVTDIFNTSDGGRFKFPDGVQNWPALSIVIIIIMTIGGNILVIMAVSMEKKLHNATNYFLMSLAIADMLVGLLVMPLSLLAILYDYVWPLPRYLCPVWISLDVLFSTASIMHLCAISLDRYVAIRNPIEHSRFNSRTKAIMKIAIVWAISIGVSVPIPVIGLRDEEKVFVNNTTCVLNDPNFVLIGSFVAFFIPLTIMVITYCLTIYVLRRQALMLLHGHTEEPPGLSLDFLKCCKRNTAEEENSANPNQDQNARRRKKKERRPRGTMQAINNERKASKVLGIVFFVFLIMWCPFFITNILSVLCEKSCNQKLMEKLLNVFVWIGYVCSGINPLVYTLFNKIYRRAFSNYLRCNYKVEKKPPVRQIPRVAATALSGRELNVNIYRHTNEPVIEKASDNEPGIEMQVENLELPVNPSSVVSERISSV
Put plainly: Binding affinity for human cloned 5-hydroxytryptamine 2C receptor expressed in CHO cells using [3H]mesulergine as radioligand. The format is cell-based.
Details: not given
On to `O=C1c2ccccc2C(=O)N1CC1CC2c3ccccc3Cc3ccccc3N2O1` (centres undefined), for which the 50% inhibitory concentration (IC50) is more than 1 µM.

On to `CN1CCN(CC2CC3c4ccccc4Cc4ccccc4N3O2)CC1` (centres undefined), for which the IC50 was more than 1 µM.

The compound `CC(C)N(CC1CC2c3ccccc3Cc3ccccc3N2O1)C(C)C` (centres undefined) gave a half-inhibitory concentration (IC50) of 0.324 µM.

Compound `NCC1CC2c3ccccc3Cc3ccccc3N2O1` (centres undefined) had an IC50 of 0.00562 µM.

Regarding `CN(C)C(=O)C1CC2c3ccccc3Cc3ccccc3N2O1` (centres undefined), the half-inhibitory concentration (IC50) is more than 1 µM.

`CN(CC1CC2c3ccccc3Cc3ccccc3N2O1)C(=O)C(F)(F)F` (centres undefined) had a 50% inhibitory concentration (IC50) of 0.692 µM.

Regarding `CN(C)CC1CC2c3ccccc3Oc3ccc(Cl)cc3N2O1` (centres undefined), the IC50 was 0.0038 µM.

For `CCN(CC)CC1CC2c3ccccc3Cc3ccccc3N2O1` (centres undefined), the IC50 is 0.0145 µM.

`Clc1cccc(N2CCN(CC3CC4c5ccccc5Cc5ccccc5N4O3)CC2)c1` (centres undefined) showed a half-inhibitory concentration (IC50) of more than 1 µM.

`c1ccc2c(c1)Cc1ccccc1N1OC(CN3CCCC3)CC21` (centres undefined) had an IC50 of 0.0162 µM. In other words, the double-digit nanomolar range.
